For orientation: IC50 means the midpoint of a concentration-inhibition curve. One may read the Ki as the equilibrium dissociation constant of an inhibitor or competing ligand from its target. Lower therefore signals a stronger hold on the target. The term half-life denotes the time needed for the level to fall by half in the phase considered.

For data set [1], the target named is T1, Caspase-1 (Homo sapiens, UniProt P29466).
T1 sequence (P29466 whole entry): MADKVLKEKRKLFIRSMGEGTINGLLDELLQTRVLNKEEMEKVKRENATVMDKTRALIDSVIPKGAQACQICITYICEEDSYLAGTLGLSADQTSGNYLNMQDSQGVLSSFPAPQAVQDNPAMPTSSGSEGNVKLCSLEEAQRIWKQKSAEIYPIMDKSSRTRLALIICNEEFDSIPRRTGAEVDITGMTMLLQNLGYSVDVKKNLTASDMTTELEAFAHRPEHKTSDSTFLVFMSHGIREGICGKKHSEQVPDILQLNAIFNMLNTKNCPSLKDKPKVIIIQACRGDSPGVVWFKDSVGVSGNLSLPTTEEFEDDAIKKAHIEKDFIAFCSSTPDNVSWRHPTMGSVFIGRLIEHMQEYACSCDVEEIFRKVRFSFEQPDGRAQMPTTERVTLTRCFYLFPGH
Put plainly: Inhibition of human ICE.

Data set [2] can be described thus: Selectivity ratio of human ICE to caspase 3.
The nature of data set [3]: Selectivity ratio of human ICE to caspase 4.
Data set [4] in a line: Selectivity ratio of human ICE to caspase 6.
Data set [5] is described as follows: Selectivity ratio of human ICE to caspase 8.
The species named for data set [6] is Homo sapiens. Put plainly: Half life in human plasma.

In data set [1], `CC(C)[C@H](CC(=O)NCCc1c[nH]c2ccc(F)cc12)C(=O)N[C@H](C=O)CC(=O)O` displayed an IC50 of 37 nM. For the same compound, the Ki in data set [1] came out at 7.9 nM. Moreover, the Selectivity ratio in data set [2], in data set [3], in data set [4] and in data set [5] was over 200 in each case.
In turn, `Cc1cc2nc(C)n(CCNC(=O)C[C@H](C(=O)N[C@H](C=O)CC(=O)O)C(C)C)c2cc1C` displayed a concentration for half-maximal inhibition (IC50) in data set [1] of 9.18 nM. The compound also came in with a Ki in data set [1] of 1.26 nM. For the same compound, the Selectivity ratio in data set [2], in data set [3], in data set [4] and in data set [5] was over 200 throughout.
Consider `CC(C)[C@H](CC(=O)NCCCc1ccccc1)C(=O)N[C@H](C=O)CC(=O)O`, for which the Selectivity ratio in data set [2], in data set [3], in data set [4] and in data set [5] was over 200 in each case.
For the compound `CC(C)[C@H](CC(=O)N(CCOc1ccccc1)CCC(=O)O)C(=O)N[C@H](C=O)CC(=O)O`, the midpoint of inhibition in data set [1], the IC50, lay at 114 nM. Further, in data set [1], affinity was put at a Ki of 9.24 nM. Besides, the Selectivity ratio in data set [2], in data set [3], in data set [4] and in data set [5] was over 200 each time.
As to `COc1ccc(CCCNC(=O)C[C@H](C(=O)N[C@H](C=O)CC(=O)O)C(C)C)cc1`, in data set [1], the IC50 came out at 410 nM. Moreover, the Ki in data set [1] was 70.9 nM. In addition, the Selectivity ratio in data set [2], in data set [3], in data set [4] and in data set [5] was over 200 throughout.
`CC(C)[C@H](CC(=O)NCCc1cccc2nc(OCCN(C)C)ccc12)C(=O)N[C@H](C=O)CC(=O)O`: in data set [1], 102 nM corresponded to half-maximal inhibition (IC50). In data set [1], this compound showed a Ki of 16.7 nM. Also, the Selectivity ratio in data set [2], in data set [3], in data set [4] and in data set [5] was over 200 each time.
In data set [1], `CC(C)[C@H](CC(=O)NCCNc1cccc(Cl)c1)C(=O)N[C@H](C=O)CC(=O)O` came in with a half-maximal inhibitory concentration (IC50) of 11.2 nM. Also, the affinity in data set [1] corresponds to a Ki of 0.95 nM. Also, the Selectivity ratio in data set [2], in data set [3], in data set [4] and in data set [5] was over 200 each time.
Compound `CC(C)[C@H](CC(=O)NCCn1ccc2ccccc21)C(=O)N[C@H](C=O)CC(=O)O` showed a 50% inhibitory concentration (IC50) in data set [1] of 45.3 nM. This compound gave an inhibition constant (Ki) in data set [1] of 4.03 nM. For the same compound, the Selectivity ratio in data set [2], in data set [3], in data set [4] and in data set [5] was over 200 in each case.
For the compound `CC(C)[C@H](CC(=O)N(CCOc1ccccc1)C(C)C)C(=O)N[C@H](C=O)CC(=O)O`, the 50% inhibitory concentration (IC50) in data set [1] stood at 584 nM. This compound displayed a Ki in data set [1] of 100 nM. Further, the Selectivity ratio in data set [2], in data set [3], in data set [4] and in data set [5] was over 200 each time.
Turning to `CC(C)[C@H](CC(=O)NCCc1cc(N(C)C)nc2ccccc12)C(=O)N[C@H](C=O)CC(=O)O`, in data set [1], 3.61 nM corresponded to half-maximal inhibition (IC50). The compound further showed a Ki in data set [1] of 3 nM. Also, the Selectivity ratio in data set [2], in data set [3], in data set [4] and in data set [5] was over 200 in each case.
In data set [1], `CC(C)[C@H](CC(=O)NCCc1cncc2ccccc12)C(=O)N[C@H](C=O)CC(=O)O` showed an IC50 of 12 nM. The Ki in data set [1] worked out at 4.3 nM. Moreover, the Selectivity ratio in data set [2], in data set [3], in data set [4] and in data set [5] was over 200 in each case.
Turning to `CC(C)[C@H](CC(=O)NCCOc1ccccc1)C(=O)N[C@H](C=O)CC(=O)O`, the midpoint of inhibition in data set [1], the IC50, lay at 539 nM. Moreover, the inhibition constant (Ki) in data set [1] is 16.9 nM. Besides, the Selectivity ratio in data set [2], in data set [3], in data set [4] and in data set [5] was over 200 each time.
With `Cc1ccc2c(c1)ncn2CCNC(=O)C[C@H](C(=O)N[C@H](C=O)CC(=O)O)C(C)C`, the IC50 in data set [1] was determined as 15.3 nM. Besides, the Ki in data set [1] turned out to be 4.85 nM. Moreover, the Selectivity ratio in data set [2], in data set [3], in data set [4] and in data set [5] was over 200 each time.
`CC(C)[C@H](CC(=O)NCCC(=O)c1ccccc1)C(=O)N[C@H](C=O)CC(=O)O`: inhibition in data set [1] was half-maximal at 398 nM (IC50). The same compound returned a Ki in data set [1] of 118 nM. For the same compound, the Selectivity ratio in data set [2], in data set [3], in data set [4] and in data set [5] was over 200 in each case.
In data set [1], `CC(C)[C@H](CC(=O)N1CCN(c2ccccc2)CC1)C(=O)N[C@H](C=O)CC(=O)O` displayed an IC50 of 7810 nM. Further, the Ki in data set [1] turned out to be 1020 nM. Moreover, the Selectivity ratio in data set [2], in data set [3], in data set [4] and in data set [5] was over 200 in each case.
Take `CC(C)[C@H](CC(=O)NCCc1cccc2ccccc12)C(=O)N[C@H](C=O)CC(=O)O`: in data set [1], the IC50 turned out to be 5.7 nM. This compound came in with a Ki in data set [1] of 0.58 nM. Further, the Selectivity ratio in data set [2], in data set [3], in data set [4] and in data set [5] was over 200 throughout.
`CC(C)[C@H](CC(=O)N1CCCC(Oc2ccccc2)C1)C(=O)N[C@H](C=O)CC(=O)O` (stereo partly specified): 170 nM corresponded to half-maximal inhibition in data set [1] (IC50). For the same compound, the affinity in data set [1] corresponds to a Ki of 21.5 nM. The Selectivity ratio in data set [2], in data set [3], in data set [4] and in data set [5] was over 200 throughout.
For the compound `CCC(C)O[C@H]1OC(=O)C[C@@H]1NC(=O)[C@@H](CC(=O)NCCc1cccc2ncccc12)C(C)C` (stereo partly specified), the Selectivity ratio in data set [2], in data set [3], in data set [4] and in data set [5] was over 200 in each case. This compound also showed a half-life in data set [6] of 7.7 h.
`Cc1cc2ncn(CCNC(=O)C[C@H](C(=O)N[C@H](C=O)CC(=O)O)C(C)C)c2cc1C` showed an IC50 in data set [1] of 14.5 nM. This compound came in with a Ki in data set [1] of 2.81 nM. In addition, the Selectivity ratio in data set [2], in data set [3], in data set [4] and in data set [5] was over 200 throughout.
Consider `CCO[C@H]1OC(=O)C[C@@H]1NC(=O)[C@@H](CC(=O)NCCc1cccc2ncccc12)C(C)C`, for which the Selectivity ratio in data set [2], in data set [3], in data set [4] and in data set [5] was over 200 in each case. The same compound had a half-life in data set [6] of 4.3 h.
Take `CC(C)[C@H](CC(=O)NCCc1c[nH]c2ccccc12)C(=O)N[C@H](C=O)CC(=O)O`: the half-inhibitory concentration (IC50) in data set [1] stood at 23.1 nM. Also, the affinity in data set [1], expressed as Ki, was 5.02 nM. Moreover, the Selectivity ratio in data set [2], in data set [3], in data set [4] and in data set [5] was over 200 throughout.
Turning to `CC(C)[C@H](CC(=O)NCCc1ccnc2ccccc12)C(=O)N[C@H](C=O)CC(=O)O`, in data set [1], the 50% inhibitory concentration (IC50) is 4.77 nM. The compound further registered an inhibition constant (Ki) in data set [1] of 1.31 nM. In addition, the Selectivity ratio in data set [2], in data set [3], in data set [4] and in data set [5] was over 200 each time.
In the case of `Cc1c(CCNC(=O)C[C@H](C(=O)N[C@H](C=O)CC(=O)O)C(C)C)c2ccccc2n1C`, the IC50 in data set [1] is 42.5 nM. Moreover, the affinity in data set [1], expressed as Ki, was 0.9 nM. Besides, the Selectivity ratio in data set [2], in data set [3], in data set [4] and in data set [5] was over 200 each time.
Take `CCC(C)O[C@@H]1OC(=O)C[C@@H]1NC(=O)[C@@H](CC(=O)NCCc1cccc2ncccc12)C(C)C` (stereo partly specified): the Selectivity ratio in data set [2], in data set [3], in data set [4] and in data set [5] was over 200 throughout. This compound showed a half-life in data set [6] of 3.9 h.
For `CC(C)[C@H](CC(=O)NCCc1cccc2ncccc12)C(=O)N[C@H]1CC(=O)O[C@H]1OC1CCCC1`, the Selectivity ratio in data set [2], in data set [3], in data set [4] and in data set [5] was over 200 throughout. Moreover, in data set [6], the half-life is 15.7 h.
In data set [1], `CC(C)[C@H](CC(=O)NCCn1cnc2ccccc21)C(=O)N[C@H](C=O)CC(=O)O` returned an IC50 of 33.7 nM. The compound also yielded a Ki in data set [1] of 20 nM. The Selectivity ratio in data set [2], in data set [3], in data set [4] and in data set [5] was over 200 throughout.
In data set [1], `CC(C)[C@H](CC(=O)NCCn1c(-c2cccnc2)nc2ccccc21)C(=O)N[C@H](C=O)CC(=O)O` displayed a half-inhibitory concentration (IC50) of 26.5 nM. The compound also yielded a Ki in data set [1] of 3.85 nM. Besides, the Selectivity ratio in data set [2], in data set [3], in data set [4] and in data set [5] was over 200 each time.

For the origin of these results see ChEMBL document CHEMBL1221254, “Succinic acid amides as P2-P3 replacements for inhibitors of interleukin-1beta converting enzyme (ICE or caspase 1)” (Bioorg Med Chem Lett, 2010).
